From US7067633B2, “Targeting cellular entry, cell survival, and pathogenicity by dynein light chain 1/PIN in human cells” (Board of Regents, The University of Texas System, priority 2003, dated 2006)

Assays:
DLC1-ER interaction = assay: Coimmunoprecipitation of DLC1 with ER; type: cell-based, human
Procedure: In vitro-translated ^35ER were incubated with GST-DLC1, and analyzed by SDS-PAGE and autoradiography. FIG. 13B: Identification of ER domains that interact with DLC1. GST-ER fusion proteins containing different deletion constructs were incubated with in vitro-translated 35S-DLC1 (aa 1-89), and binding was analyzed by GST pull-down assay. FIG. 13C: Mapping of the ER-binding region in DLC1. GST-fusions of various DLC1 deletion constructs were incubated with in vitro-translated ^35S-ER, and binding was analyzed by GST pull-down assay. […] Cell lysates from Ishikawa cells was immunoprecipitated (IP) with anti-ERá mAb and immunoblotted with anti-DLC1 or ER Abs. […] Cell lysates from MCF-7/TAM-sen or Ishikawa cells were treated with Tam (10^−9M) for 24 h, and IP with anti-ERá mAb and immunoblotted with anti-DLC1 or ER Abs. […] MCF-7/DLC1 cells were treated with or without Dox for 24 h and then treated with E2 (10^−9M) or Tam (10^−8M) for 24 h, and IP with anti-ERá mAb and immunoblotted with anti-DLC1 or ER Abs. FIG. 13G: Characterization of MCF-7 cells expressing T7-DLC1-Ser88A mutant under a tetracycline-inducible promoter. […] MCF-7/DLC1 and MCF-7/DLC1-Ser88A cells were treated with or without Dox for 24 h and cell lysates were IP with anti-ERá mAb and blotted with anti-DLC1, ERá and T7 Abs.
To this end, MCF-7 cells expressing a T7-DLC1 mutant in which Ser88 and amino acid 89 were deleted under a tet-inducible promoter (MCF-7/DLC1-1-87 mutant) were generated (FIG. 13G).

ZR 75 cells = assay: Boyden chamber migration assay, NIH3T3 conditioned medium; type: cell-based, human; conditions: stable ZR75 clones
Procedure: FIGS. 4A–4E—Effect of DLC1/PIN expression on cell motility. FIG. 4A: expression of DLC1/PIN in a number of normal and breast cancer cells analyzed by western blot analysis. FIG. 4B: Expression of T7-DLC1/PIN in stable clones analyzed by western blot analysis. FIG. 4C: Effect DLC1/PIN expression on the motility. Migratory potential of DLC1/PIN wild type or DLC1/PIN^del88-89 mutant expressing clones was measured by Boyden chamber assay using NIH3T3 conditioned medium as chemoattractant. Migrated cells were recorded by microscopy. Representative data of three replicate experiments is shown. FIG. 4D: ZR75/RFP-DLC1 cells which stably expressing wild type red florescent-tagged DLC1/PIN protein (RFPDLC1/PIN) was incubated with FITC-dextran beads. After twenty minutes, cells were fixed with methanol and stained for endogenous Pak1 (blue), RFPDLC1/PIN (red) and FITC-dextran (green). An inset containing the cytoplasmic region was blown up to visualize the colocalization of Pak1 and DLC1/PIN on dextran beads. Merged images are presented in the upper right panel, and colocalization of Pak1 with DLC1/PIN can be visualized as white vesicles due to colocalization of pixels from Pak1 (blue), DLC1/PIN (red) and FITC dextran (green). FIG. 4E: ZR75/RFP-DLC1/PIN were transfected with a dominant negative mutant of Pak1 K299RLL (a myc-tagged kinase dead and GTPase binding defective construct of Pak1). […]

| Molecule | DLC1-ER interaction (DLC1-ER interaction; Ishikawa cells, Tam 24 h) | DLC1-ER interaction (DLC1-ER interaction; MCF-7/DLC1 cells with doxycycline) | DLC1-ER interaction (DLC1-ER interaction; MCF-7/TAM-Sen cells, Tam 24 h) | interaction with ER (DLC1-ER interaction; MCF-7 cells, tet-inducible T7-tagged mutant) | migratory potential (ZR 75 cells) |
| --- | --- | --- | --- | --- | --- |
| CC/C(=C(\c1ccccc1)c1ccc(OCCN(C)C)cc1)c1ccccc1 [tamoxifen] | substantially enhanced | modestly, but reproducibly, increased | not | – | – |
| DLC1/PIN^del 88-89: DLC1/PIN mutant in which Ser88 and amino acid 89 were deleted | – | – | – | failed to detect any interaction | abolished DLC1/PIN mediated increase in the migratory potential |
